Key:
ECHCG (Barnyardgrass) = assay: Postemergence herbicidal evaluation; assay type: in vivo, Echinochloa crus-galli
Procedure: (§1) In the tests, seedling plants are grown in jiffy flats for about two weeks. The test compounds are dispersed in 50/50 acetone/water mixtures containing 0.5% TWEEN®20, a polyoxyethylene sorbitan monolaurate surfactant of Atlas Chemical Industries, in sufficient quantities to provide the equivalent of about 0.0156 kg to 0.500 kg per hectare of active compound when applied to the plants through a spray nozzle operating at 40 psi for a predetermined time. After spraying, the plants are placed on greenhouse benches and are cared for in accordance with conventional greenhouse procedures. From four to five weeks after treatment, the seedling plants are examined and rated according to the rating system set forth below. Where more than one test is involved for a given compound, the data are averaged.
(§2) Plant species employed in these evaluations are reported by header abbreviation, common name and scientific name.
(§3) Results of herbicide evaluation are expressed on a rating scale (0-9). The scale is based upon a visual observation of plant stand, vigor, malformation, size, chlorosis and overall plant appearance as compared with a control.

MOOVA (Monochoria) [1] = assay: Postemergence weed control under flooded paddy conditions; assay type: in vivo, Monochoria vaginalis; conditions: postemergence weeds, 3-4 weeks after treatment
Text: as §3
(§4) Plastic containers containing weeds which are 3 to 5 cm tall and rice seedlings at the 1.5 to 2.5 leaf stage are flooded with water. The water is maintained at 1.5 to 3 cm above the soil surface for the duration of the experiment. Test compounds are applied as aqueous/ acetone mixtures 50/50 v/v directly into the flood water to provide the equivalent of about 0.0313 to 0.500 kg/ha of active ingredient. The treated containers are placed on greenhouse benches and cared for in accordance with conventional greenhouse procedures. Three to four weeks after treatment, the test is terminated and each container is examined and herbicidal effect rated according to the rating system provided in Example 37. The compounds evaluated are reported by compound number given in Example 37.

[2] = test system: TRZAWR (Wheat, Winter, cv Riband); assay: Postemergence herbicidal evaluation; assay type: in vivo, Triticum aestivum
Procedure: as §1, §2, §3

ORYSAT (Rice, Tebonnet) = assay: Postemergence herbicidal evaluation; assay type: in vivo, Oryza sativa, (L.) Tebonnet
In short: (§5)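 First, seedlings were raised for around two weeks. Next, test material in 50/50 acetone/water containing 0.5% TWEEN 20 was sprayed through a nozzle at 40 psi, equivalent to about 0.0156–0.500 kg/ha. Finally, after 4–5 weeks in the greenhouse, plants were rated 0–9.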

[3] = test system: SAGPY (Arrowhead (Pygmaea)); assay: Postemergence weed control under flooded paddy conditions; assay type: in vivo, Sagittaria pygmaea; conditions: postemergence weeds, 3-4 weeks after treatment
Text: as §3, §4

[4] = test system: CHEAL (Lambsquarters, Common); assay: Postemergence herbicidal evaluation; assay type: in vivo, Chenopodium album
Procedure: as §1, §2, §3

CASOB (Sicklepod) = assay: Postemergence herbicidal evaluation; assay type: in vivo, Cassia obtusifolia
In short: as §5

[5] = test system: ECHORC (Watergrass (Calif.)); assay: Preemergence weed control under flooded paddy conditions; assay type: in vivo, Echinochloa oryzoides; conditions: rated 3-4 weeks after treatment
In short: (§6)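 Seeds or propagules sown in top 0.5 cm of silt loam soil, flooded 1.5 to 3 cm above surface throughout. Compound in 50/50 v/v aqueous/acetone pipetted into flood water at about 0.0313 to 0.500 kg/ha. Visual 0-9 rating versus control after three to four weeks in greenhouse.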

CYPSE (Flatsedge) [6] = assay: as above; assay type: in vivo, Cyperus serotinus; conditions: rated 3-4 weeks after treatment
In short: (§7)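 Seeds or propagules sown in silt loam kept flooded 1.5-3 cm; compounds in 50/50 acetone/water pipetted into flood water at about 0.0313 to 0.500 kg/ha. Greenhouse; visual 0-9 rating versus untreated control 3-4 weeks after treatment.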

[7] = test system: IPOHE (Morningglory, Ivyleaf); assay: Postemergence herbicidal evaluation; assay type: in vivo, Ipomoea hederacea
In short: as §5

CYPSE (Flatsedge) [8] = assay: Postemergence weed control under flooded paddy conditions; assay type: in vivo, Cyperus serotinus; conditions: postemergence weeds, 3-4 weeks after treatment
Text: as §3, §4

CYPIR (Rice Flatsedge) [9] = assay: as above; assay type: in vivo, Cyperus iria; conditions: postemergence weeds, 3-4 weeks after treatment
Text: as §3, §4

MOOVA (Monochoria) [10] = assay: Preemergence weed control under flooded paddy conditions; assay type: in vivo, Monochoria vaginalis; conditions: rated 3-4 weeks after treatment
In short: as §7

[11] = test system: GLXMAW (Soybean, Williams); assay: Postemergence herbicidal evaluation; assay type: in vivo, Glycine max, (L.) Merr. cv Williams
Procedure: as §1, §2, §3

CYPIR (Rice Flatsedge) [12] = assay: Preemergence weed control under flooded paddy conditions; assay type: in vivo, Cyperus iria; conditions: rated 3-4 weeks after treatment
In short: as §6

SETVI (Foxtail, Green) = assay: Postemergence herbicidal evaluation; assay type: in vivo, Setaria viridis
In short: as §5

ZEAMX (Corn, Field) = assay: Postemergence herbicidal evaluation; assay type: in vivo, Zea mays
In short: as §5

GALAP (Galium) = assay: Postemergence herbicidal evaluation; assay type: in vivo, Galium aparine
In short: as §5

[13] = test system: SAGPY (Arrowhead (Pygmaea)); assay: Preemergence weed control under flooded paddy conditions; assay type: in vivo, Sagittaria pygmaea; conditions: rated 3-4 weeks after treatment
Procedure: as §3
Preemergence herbicidal activity under flooded paddy conditions is determined as follows: plant seeds or propagating organs are planted in the top 0.5 cm of silt loam soil in 32 oz. plastic containers with a diameter of 10.5 cm and no drainage holes. Water is added to these containers and maintained at 1.5 to 3 cm above the soil surface for the duration of the experiment. The test compounds are applied as aqueous/acetone mixtures 50/50 v/v pipetted directly into the flood water to give the equivalent of about 0.0313 to 0.500 kg/ha of active ingredient. The treated containers are placed on greenhouse benches and cared for in accordance with conventional greenhouse procedures. Three to four weeks after treatment, the test is terminated and each container is examined and herbicidal effect rated according to the rating system provided in Example 37. The compounds evaluated are reported by compound number given in Example 37.
Plant species employed in this example are reported by header abbreviation, common name and scientific name.

ABUTH (Velvetleaf) = assay: Postemergence herbicidal evaluation; assay type: in vivo, Abutilon theophrasti
In short: as §5

AMBEL (Ragweed, Common) = assay: Postemergence herbicidal evaluation; assay type: in vivo, Ambrosia artemisifolia
Procedure: as §1, §2, §3

[14] = test system: ECHORC (Watergrass (Calif.)); assay: Postemergence weed control under flooded paddy conditions; assay type: in vivo, Echinochloa oryzoides; conditions: postemergence weeds, 3-4 weeks after treatment
Text: as §3, §4

## CCOC(=O)CN1C(=O)C(CC(=O)NC)SC1=Nc1cc(-n2c(=O)cc(C(F)(F)F)n(C)c2=O)c(F)cc1Cl (stereo not shown) [Compound 57, Ethyl 2-{{2-chloro-5-[3,6-dihydro-3-methyl-2,6-dioxo-4-(trifluoromethyl)-1(2H)-pyrimidinyl]-4-fluorophenyl}imino}-5-[(methylcarbamoyl)methyl]-4-oxo-3-thiazolidineacetate]
ECHCG (Barnyardgrass); Rate 0.0158 kg/ha
  Postemergence herbicidal rating ECHCG: 1.0
ECHCG (Barnyardgrass); Rate 0.0315 kg/ha
  Postemergence herbicidal rating ECHCG: 1.0
ECHCG (Barnyardgrass); Rate 0.0630 kg/ha
  Postemergence herbicidal rating ECHCG: 1.0
MOOVA (Monochoria) [1]; rate 0.0313 kg/ha
  Herbicidal rating MOOVA: 9.0
MOOVA (Monochoria) [1]; rate 0.0625 kg/ha
  Herbicidal rating MOOVA: 9.0
MOOVA (Monochoria) [1]; rate 0.1250 kg/ha
  Herbicidal rating MOOVA: 9.0
MOOVA (Monochoria) [1]; rate 0.2500 kg/ha
  Herbicidal rating MOOVA: 9.0
[2]; Rate 0.0158 kg/ha
  Postemergence herbicidal rating TRZAWR: 3.0
[2]; Rate 0.0315 kg/ha
  Postemergence herbicidal rating TRZAWR: 4.0
[2]; Rate 0.0630 kg/ha
  Postemergence herbicidal rating TRZAWR: 4.0
ORYSAT (Rice, Tebonnet); Rate 0.0158 kg/ha
  Postemergence herbicidal rating ORYSAT: 1.5
ORYSAT (Rice, Tebonnet); Rate 0.0315 kg/ha
  Postemergence herbicidal rating ORYSAT: 2.5
ORYSAT (Rice, Tebonnet); Rate 0.0630 kg/ha
  Postemergence herbicidal rating ORYSAT: 3.0
[3]; rate 0.0313 kg/ha
  Herbicidal rating SAGPY: 0.0
[3]; rate 0.0625 kg/ha
  Herbicidal rating SAGPY: 0.0
[3]; rate 0.1250 kg/ha
  Herbicidal rating SAGPY: 0.0
[3]; rate 0.2500 kg/ha
  Herbicidal rating SAGPY: 6.0
[4]; Rate 0.0158 kg/ha
  Postemergence herbicidal rating CHEAL: 9.0
[4]; Rate 0.0315 kg/ha
  Postemergence herbicidal rating CHEAL: 9.0
[4]; Rate 0.0630 kg/ha
  Postemergence herbicidal rating CHEAL: 9.0
CASOB (Sicklepod); Rate 0.0158 kg/ha
  Postemergence herbicidal rating CASOB: 2.0
CASOB (Sicklepod); Rate 0.0315 kg/ha
  Postemergence herbicidal rating CASOB: 2.0
CASOB (Sicklepod); Rate 0.0630 kg/ha
  Postemergence herbicidal rating CASOB: 6.0
[5]; 0.0313 kg/ha
  Herbicidal rating ECHORC: 0.0
[5]; 0.0625 kg/ha
  Herbicidal rating ECHORC: 2.0
[5]; 0.1250 kg/ha
  Herbicidal rating ECHORC: 2.0
[5]; 0.2500 kg/ha
  Herbicidal rating ECHORC: 5.0
CYPSE (Flatsedge) [6]; 0.0313 kg/ha
  Herbicidal rating CYPSE: 0.0
CYPSE (Flatsedge) [6]; 0.0625 kg/ha
  Herbicidal rating CYPSE: 0.0
CYPSE (Flatsedge) [6]; 0.1250 kg/ha
  Herbicidal rating CYPSE: 0.0
CYPSE (Flatsedge) [6]; 0.2500 kg/ha
  Herbicidal rating CYPSE: 3.0
[7]; Rate 0.0158 kg/ha
  Postemergence herbicidal rating IPOHE: 9.0
[7]; Rate 0.0315 kg/ha
  Postemergence herbicidal rating IPOHE: 9.0
[7]; Rate 0.0630 kg/ha
  Postemergence herbicidal rating IPOHE: 9.0
CYPSE (Flatsedge) [8]; rate 0.0313 kg/ha
  Herbicidal rating CYPSE: 0.0
CYPSE (Flatsedge) [8]; rate 0.0625 kg/ha
  Herbicidal rating CYPSE: 0.0
CYPSE (Flatsedge) [8]; rate 0.1250 kg/ha
  Herbicidal rating CYPSE: 0.0
CYPSE (Flatsedge) [8]; rate 0.2500 kg/ha
  Herbicidal rating CYPSE: 3.0
CYPIR (Rice Flatsedge) [9]; rate 0.0313 kg/ha
  Herbicidal rating CYPIR: 0.0
CYPIR (Rice Flatsedge) [9]; rate 0.0625 kg/ha
  Herbicidal rating CYPIR: 9.0
CYPIR (Rice Flatsedge) [9]; rate 0.1250 kg/ha
  Herbicidal rating CYPIR: 9.0
CYPIR (Rice Flatsedge) [9]; rate 0.2500 kg/ha
  Herbicidal rating CYPIR: 9.0
MOOVA (Monochoria) [10]; 0.0313 kg/ha
  Herbicidal rating MOOVA: 9.0
MOOVA (Monochoria) [10]; 0.0625 kg/ha
  Herbicidal rating MOOVA: 9.0
MOOVA (Monochoria) [10]; 0.1250 kg/ha
  Herbicidal rating MOOVA: 9.0
MOOVA (Monochoria) [10]; 0.2500 kg/ha
  Herbicidal rating MOOVA: 9.0
[11]; Rate 0.0158 kg/ha
  Postemergence herbicidal rating GLXMAW: 6.5
[11]; Rate 0.0315 kg/ha
  Postemergence herbicidal rating GLXMAW: 6.5
[11]; Rate 0.0630 kg/ha
  Postemergence herbicidal rating GLXMAW: 9.0
CYPIR (Rice Flatsedge) [12]; 0.0313 kg/ha
  Herbicidal rating CYPIR: 0.0
CYPIR (Rice Flatsedge) [12]; 0.0625 kg/ha
  Herbicidal rating CYPIR: 9.0
CYPIR (Rice Flatsedge) [12]; 0.1250 kg/ha
  Herbicidal rating CYPIR: 9.0
CYPIR (Rice Flatsedge) [12]; 0.2500 kg/ha
  Herbicidal rating CYPIR: 9.0
SETVI (Foxtail, Green); Rate 0.0158 kg/ha
  Postemergence herbicidal rating SETVI: 2.0
SETVI (Foxtail, Green); Rate 0.0315 kg/ha
  Postemergence herbicidal rating SETVI: 4.0
SETVI (Foxtail, Green); Rate 0.0630 kg/ha
  Postemergence herbicidal rating SETVI: 5.0
ZEAMX (Corn, Field); Rate 0.0158 kg/ha
  Postemergence herbicidal rating ZEAMX: 4.5
ZEAMX (Corn, Field); Rate 0.0315 kg/ha
  Postemergence herbicidal rating ZEAMX: 5.0
ZEAMX (Corn, Field); Rate 0.0630 kg/ha
  Postemergence herbicidal rating ZEAMX: 5.0
GALAP (Galium); Rate 0.0158 kg/ha
  Postemergence herbicidal rating GALAP: 4.0
GALAP (Galium); Rate 0.0315 kg/ha
  Postemergence herbicidal rating GALAP: 6.0
GALAP (Galium); Rate 0.0630 kg/ha
  Postemergence herbicidal rating GALAP: 5.0
[13]; 0.0313 kg/ha
  Herbicidal rating SAGPY: 0.0
[13]; 0.0625 kg/ha
  Herbicidal rating SAGPY: 0.0
[13]; 0.1250 kg/ha
  Herbicidal rating SAGPY: 0.0
[13]; 0.2500 kg/ha
  Herbicidal rating SAGPY: 6.0
ABUTH (Velvetleaf); Rate 0.0158 kg/ha
  Postemergence herbicidal rating ABUTH: 9.0
ABUTH (Velvetleaf); Rate 0.0315 kg/ha
  Postemergence herbicidal rating ABUTH: 9.0
ABUTH (Velvetleaf); Rate 0.0630 kg/ha
  Postemergence herbicidal rating ABUTH: 9.0
AMBEL (Ragweed, Common); Rate 0.0158 kg/ha
  Postemergence herbicidal rating AMBEL: 9.0
AMBEL (Ragweed, Common); Rate 0.0315 kg/ha
  Postemergence herbicidal rating AMBEL: 9.0
AMBEL (Ragweed, Common); Rate 0.0630 kg/ha
  Postemergence herbicidal rating AMBEL: 9.0
[14]; rate 0.0313 kg/ha
  Herbicidal rating ECHORC: 0.0
[14]; rate 0.0625 kg/ha
  Herbicidal rating ECHORC: 2.0
[14]; rate 0.1250 kg/ha
  Herbicidal rating ECHORC: 2.0
[14]; rate 0.2500 kg/ha
  Herbicidal rating ECHORC: 5.0
